According to article PMC11403733, “Asymmetric Dirhodium-Catalyzed Modification of Immunomodulatory Imide Drugs and Their Biological Assessment” (ACS Medicinal Chemistry Letters, 2024):
Values joined by “and” are separate entries in the source; they are usually repeats but may differ in a detail not shown here. Identical values can stand only once.

Columns and labels:
CRBN = molecular target: T1, CRBN (Homo sapiens, UniProt Q96SW2); experiment: Fluorescence Resonance Energy Transfer-Based Cereblon Binding Assay (CRBN HTRF); conditions: 0.5 nM 6×His-CRBN-DDB1, 20 nM tracer CC0782985, TR-FRET
T1 construct: (CRBN a.a. 1−442, DDB1 a.a); made in house
Method: (§1) Section 6: Assay Protocols
(§2) Fluorescence Resonance Energy Transfer-Based NSD@ PWWP Cereblon Binding Assay. […]
(§3) Compounds for testing were spotted into a 1536 well plate (Greiner Cat#782075). CRBN and Tracer solution were incubated in compound wells for 20 minutes. Detection mix containing Anti6xHis Tb Crytate (CisBio Cat#61HI2TLF) was then added to assay wells for a final 0.5x assay concentration of detection antibody (stock is provided at 400x). Plates were incubated for 30 minutes before being read on Pherastar FSX plate reader using TR-FRET module (Excitation 340nm, Emssion 615/665nm). ePL and HiBiT degradation assays
(§4) DF15 cells overexpressing ePL tagged GSPT1 (DF15/GSPT1 ePL OE) was used to monitor the degradation of GSPT1 induced by experimental compounds. MDS-L cells overexpressing ePL tagged CK1α and GSPT1G575N (MDS-L/CK1α ePL OE_ GSPT1G575N OE) was used to monitor the degradation of CK1α induced by experimental compounds. NCCIT cells with HiBiT tag knocked in at the c-terminus of SALL4 (NCCIT/SALL4-HiBiT KI) was used to monitor the degradation of SALL4 induced by experimental compounds. DF15 cells with HiBiT tag knocked in at the n-terminus of IKZF3 (DF15/HiBiT-IKZF3 KI) was used to monitor the degradation of AIOLOS (IKZF3) induced by experimental compounds. […]

IKZF3 (Aiolos) = molecular target: T2, IKZF3 (Aiolos) (Homo sapiens, UniProt Q96SW2+Q9UKT9); experiment: HiBiT degradation assay, DF15/HiBiT-IKZF3 KI cells; type: cell-based; conditions: N ≥ 3; for EC50: degradation, 4 hr incubation, top conc 10 uM; for IKZF3 Ymin: depth of degradation (100% = no reduction of protein level, 0% = complete degradation), 4 hr
T2 construct: endogenous in cells; host or cells: DF15 (HiBiT knock-in)
Method: as §1, §2, §3, §4
(§5) The cell culture medium recipes, seeding densities and compound incubation time with cells are […]
(§6) Ta r g e t Cell line Cell culture medium Seeding Compound
(§7) (HI) FBS, 1mM sodium pyruvate, 25mM Hepes, 0.1% pluronic acid,
(§8) GSPT1G575N OE ng/mL of human recombinant IL3 […]
(§9) sodium pyruvate, 25mM Hepes, 0.1% pluronic acid, 1X NEAA
(§10) For all degradation assays, compounds were pre-spotted in a 153 6 well plate (Corning 3727) starting at 10uM with 3-fold serial dilution down 11 points in replicates using an Echo 650 series acoustic liquid handler. 5uL/well cells were seeded in the assay ready plate at the density and in […]
(§11) The final DMSO concentration in the cell culture was 0.25%. The plates were equilibrated at room temperature for 30 minutes before putting into a 37 °C CO2 incubator. After appropriate incubation period, plates were retrieved from the incubator and set at room temperature to equilibrate for 30 minutes, before adding ePL or HiBiT detection reagent. For ePL detection, the pre-prepared mixture of EA reagent, lysis buffer, and substrate reagent at ratio 1:1:4 from the DiscoverX InCELL Detection Kit (Eurofins 96-0079L) according to the manufacturer ’s recommendation was added 3ul/well into the plate. Plates were incubated in the dark for 1hr at room temperature before reading using a BMG PheraStar luminescence reader. For HiBiT detection, Nano-Glo HiBiT Lytic Reagent (Promega, N3050) prepared according to the manufacturer ’s recommendation was added 3 uL/well into the plate. Plates were incubated 30 minutes at room temperature in the dark before reading using a BMG PheraStar […]
(§12) To determine EC50 values for degradation, a four parameter logistic model (Sigmoidal Dose-Response Model) (FIT= (A+((B-A)/1+((C/x)^D)))) C is the inflection point (EC50), D is […] , A and B are the low and high limits of the fit respectively) was used to determine the compound’s EC50 value, which is the half maximum effective concentration. In the degradation assays, the Yconst of each compound was calculated by normalizing the lowest point of the fitted curve to the media only control, which is 0%, and the cells treated with DMSO control, which is 100%. All degradation curves were processed and evaluated using Dotmatics.
(§13) Section 7: Biological Data Tables

CK1α = molecular target: T3, CK1α (Homo sapiens, UniProt P48729+Q96SW2); experiment: ePL degradation assay, MDS-L/CK1α ePL OE_GSPT1G575N OE cells; type: cell-based; conditions: for EC50: degradation, 4 hr incubation, top conc 10 uM, N ≥ 3, read-out: CK1a EC50; for CK1a Ymin: depth of degradation (100% = no reduction, 0% = complete degradation), 4 hr, N ≥ 3
T3 construct: expressed in transfected cells; host or cells: MDS-L
Method: as §1, §2, §3, §4, §5, §6, §7, §8, §9, §10, §11, §12, §13

GSPT1 = molecular target: T4, GSPT1 (Homo sapiens, UniProt P15170+Q96SW2); experiment: ePL degradation assay, DF15/GSPT1 ePL OE cells; type: cell-based; conditions: N ≥ 3; for EC50: degradation, 20 hr incubation, top conc 10 uM; for GSPT1 Ymin: depth of degradation (100% = no reduction, 0% = complete degradation), 20 hr
T4 construct: expressed in transfected cells; host or cells: DF15
Method: as §1, §2, §3, §4, §5, §6, §7, §8, §9, §10, §11, §12, §13

SALL4 = molecular target: T5, SALL4 (Homo sapiens, UniProt Q96SW2+Q9UJQ4); experiment: HiBiT degradation assay, NCCIT/SALL4-HiBiT KI cells; type: cell-based; conditions: N ≥ 3; for EC50: degradation, 2 hr incubation, top conc 10 uM; for SALL4 Ymin: depth of degradation (100% = no reduction, 0% = complete degradation), 2 hr
T5 construct: endogenous in cells; host or cells: NCCIT (HiBiT knock-in)
Method: as §1, §2, §3, §4, §5, §6, §7, §8, §9, §10, §11, §12, §13

T2 sequence (Q9UKT9 whole entry): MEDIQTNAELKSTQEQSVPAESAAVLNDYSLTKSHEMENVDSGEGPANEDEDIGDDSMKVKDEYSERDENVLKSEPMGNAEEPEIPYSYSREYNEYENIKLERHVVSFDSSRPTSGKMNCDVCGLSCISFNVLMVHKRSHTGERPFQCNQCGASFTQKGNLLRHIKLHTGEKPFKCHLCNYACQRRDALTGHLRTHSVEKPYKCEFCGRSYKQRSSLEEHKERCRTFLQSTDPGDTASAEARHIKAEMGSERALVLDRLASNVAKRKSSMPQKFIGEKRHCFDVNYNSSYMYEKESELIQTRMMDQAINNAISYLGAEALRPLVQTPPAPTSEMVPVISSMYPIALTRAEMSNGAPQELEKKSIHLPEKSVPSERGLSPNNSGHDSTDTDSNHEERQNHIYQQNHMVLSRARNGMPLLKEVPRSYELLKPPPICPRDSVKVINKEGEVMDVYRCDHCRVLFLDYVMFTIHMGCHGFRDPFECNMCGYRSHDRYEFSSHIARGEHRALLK
T2 sequence (Q96SW2 whole entry): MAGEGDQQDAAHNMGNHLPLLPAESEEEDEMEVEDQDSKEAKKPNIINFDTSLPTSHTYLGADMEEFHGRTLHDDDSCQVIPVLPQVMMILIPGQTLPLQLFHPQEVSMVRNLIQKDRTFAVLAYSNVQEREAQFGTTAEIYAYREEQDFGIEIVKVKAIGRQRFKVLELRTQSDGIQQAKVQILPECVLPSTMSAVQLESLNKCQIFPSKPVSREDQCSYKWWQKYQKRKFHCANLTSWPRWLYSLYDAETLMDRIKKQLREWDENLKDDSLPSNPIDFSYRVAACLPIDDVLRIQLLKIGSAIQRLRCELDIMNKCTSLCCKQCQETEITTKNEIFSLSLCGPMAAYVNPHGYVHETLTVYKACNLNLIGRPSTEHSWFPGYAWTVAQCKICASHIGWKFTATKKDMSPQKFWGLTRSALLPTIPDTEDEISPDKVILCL
T2 sequence (Q16531 whole entry partner): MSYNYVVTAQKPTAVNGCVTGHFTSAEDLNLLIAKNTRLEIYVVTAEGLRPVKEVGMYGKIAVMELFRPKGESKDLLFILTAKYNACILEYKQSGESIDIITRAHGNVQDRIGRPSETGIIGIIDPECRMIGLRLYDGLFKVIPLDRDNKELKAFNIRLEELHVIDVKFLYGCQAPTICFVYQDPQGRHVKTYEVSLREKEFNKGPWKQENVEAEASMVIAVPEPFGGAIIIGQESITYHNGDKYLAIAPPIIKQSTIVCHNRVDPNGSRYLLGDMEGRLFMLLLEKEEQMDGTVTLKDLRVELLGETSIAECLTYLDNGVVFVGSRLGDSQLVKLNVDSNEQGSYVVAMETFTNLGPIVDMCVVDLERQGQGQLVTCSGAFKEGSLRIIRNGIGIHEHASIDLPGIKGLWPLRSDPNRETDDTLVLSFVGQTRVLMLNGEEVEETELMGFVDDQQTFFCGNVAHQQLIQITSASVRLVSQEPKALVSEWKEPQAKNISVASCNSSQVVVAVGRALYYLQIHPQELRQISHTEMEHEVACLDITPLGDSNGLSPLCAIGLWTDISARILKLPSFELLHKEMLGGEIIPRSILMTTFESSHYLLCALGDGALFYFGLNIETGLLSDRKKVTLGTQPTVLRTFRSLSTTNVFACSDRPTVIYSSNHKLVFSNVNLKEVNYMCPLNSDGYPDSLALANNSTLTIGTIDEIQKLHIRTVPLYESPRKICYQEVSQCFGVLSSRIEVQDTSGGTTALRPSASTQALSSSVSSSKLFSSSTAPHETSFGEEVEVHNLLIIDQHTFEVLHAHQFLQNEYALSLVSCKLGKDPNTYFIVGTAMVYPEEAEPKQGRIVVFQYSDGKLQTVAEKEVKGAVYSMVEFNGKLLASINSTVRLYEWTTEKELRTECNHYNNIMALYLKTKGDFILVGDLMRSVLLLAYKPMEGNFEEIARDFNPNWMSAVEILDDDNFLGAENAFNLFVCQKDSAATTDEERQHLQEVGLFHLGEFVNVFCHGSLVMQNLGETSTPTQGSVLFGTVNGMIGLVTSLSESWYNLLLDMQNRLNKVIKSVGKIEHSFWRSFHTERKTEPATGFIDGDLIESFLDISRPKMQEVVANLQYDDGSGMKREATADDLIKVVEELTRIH
T4 sequence (P15170 1-637 isoform P15170-3): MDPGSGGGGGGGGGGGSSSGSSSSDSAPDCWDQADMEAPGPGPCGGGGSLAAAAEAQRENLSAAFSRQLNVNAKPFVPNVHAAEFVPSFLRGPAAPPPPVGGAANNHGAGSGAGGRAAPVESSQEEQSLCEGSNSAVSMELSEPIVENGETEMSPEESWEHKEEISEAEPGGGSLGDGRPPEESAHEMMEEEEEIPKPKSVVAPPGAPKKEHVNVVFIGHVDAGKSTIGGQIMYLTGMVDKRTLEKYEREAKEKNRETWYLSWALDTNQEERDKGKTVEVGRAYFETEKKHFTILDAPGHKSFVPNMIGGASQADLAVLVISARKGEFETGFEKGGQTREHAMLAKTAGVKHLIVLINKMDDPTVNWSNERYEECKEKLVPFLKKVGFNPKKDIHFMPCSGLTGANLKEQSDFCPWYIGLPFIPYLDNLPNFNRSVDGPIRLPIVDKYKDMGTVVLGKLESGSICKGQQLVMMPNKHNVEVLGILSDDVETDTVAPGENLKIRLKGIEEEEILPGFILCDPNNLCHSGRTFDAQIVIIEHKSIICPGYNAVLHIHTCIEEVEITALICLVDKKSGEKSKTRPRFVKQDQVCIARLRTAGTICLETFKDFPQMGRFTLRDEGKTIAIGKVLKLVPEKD
T4 sequence (Q96SW2 whole entry): as the sequence (Q96SW2 whole entry) above
T4 sequence (Q16531 whole entry partner): as the sequence (Q16531 whole entry partner) above
T5 sequence (Q9UJQ4 whole entry): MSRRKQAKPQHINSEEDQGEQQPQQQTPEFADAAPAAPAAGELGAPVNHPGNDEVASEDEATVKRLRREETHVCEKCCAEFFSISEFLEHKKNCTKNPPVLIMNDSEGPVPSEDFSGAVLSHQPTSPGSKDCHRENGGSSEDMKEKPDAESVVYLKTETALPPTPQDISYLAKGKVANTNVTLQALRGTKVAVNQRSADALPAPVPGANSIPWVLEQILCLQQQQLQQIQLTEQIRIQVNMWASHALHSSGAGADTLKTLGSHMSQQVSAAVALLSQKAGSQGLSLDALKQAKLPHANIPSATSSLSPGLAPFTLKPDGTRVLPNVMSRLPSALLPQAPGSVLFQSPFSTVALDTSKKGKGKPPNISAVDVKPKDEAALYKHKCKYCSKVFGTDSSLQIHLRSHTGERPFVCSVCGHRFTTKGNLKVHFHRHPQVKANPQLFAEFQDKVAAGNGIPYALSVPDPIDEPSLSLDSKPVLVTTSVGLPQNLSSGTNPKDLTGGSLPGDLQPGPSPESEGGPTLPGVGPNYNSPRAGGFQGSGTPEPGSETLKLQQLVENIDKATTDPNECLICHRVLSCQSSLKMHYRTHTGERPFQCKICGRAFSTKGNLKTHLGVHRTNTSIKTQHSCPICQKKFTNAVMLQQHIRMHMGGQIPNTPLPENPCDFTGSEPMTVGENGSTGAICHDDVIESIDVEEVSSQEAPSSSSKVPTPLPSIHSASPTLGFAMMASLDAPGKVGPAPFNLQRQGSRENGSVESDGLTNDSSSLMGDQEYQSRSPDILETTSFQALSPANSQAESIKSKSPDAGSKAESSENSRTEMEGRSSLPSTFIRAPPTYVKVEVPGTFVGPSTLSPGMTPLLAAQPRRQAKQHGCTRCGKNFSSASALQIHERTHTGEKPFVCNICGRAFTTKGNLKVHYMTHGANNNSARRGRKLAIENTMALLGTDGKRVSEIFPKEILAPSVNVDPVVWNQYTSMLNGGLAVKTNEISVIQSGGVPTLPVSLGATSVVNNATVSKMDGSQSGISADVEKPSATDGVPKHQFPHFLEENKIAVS
T5 sequence (Q96SW2 whole entry): as the sequence (Q96SW2 whole entry) above
T5 sequence (Q16531 whole entry partner): as the sequence (Q16531 whole entry partner) above
T1 sequence (Q96SW2 whole entry): as the sequence (Q96SW2 whole entry) above
T1 sequence (Q16531 whole entry partner): as the sequence (Q16531 whole entry partner) above
T3 sequence (P48729 whole entry): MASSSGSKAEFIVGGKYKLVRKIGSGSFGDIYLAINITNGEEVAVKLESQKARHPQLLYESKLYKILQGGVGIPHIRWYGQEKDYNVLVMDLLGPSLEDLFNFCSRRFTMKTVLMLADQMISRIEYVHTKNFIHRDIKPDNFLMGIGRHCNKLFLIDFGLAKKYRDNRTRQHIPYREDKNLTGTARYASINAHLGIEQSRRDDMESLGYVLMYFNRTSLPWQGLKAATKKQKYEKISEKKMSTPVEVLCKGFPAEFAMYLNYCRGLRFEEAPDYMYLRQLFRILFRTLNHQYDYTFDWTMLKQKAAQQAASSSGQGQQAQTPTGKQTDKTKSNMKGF
T3 sequence (Q96SW2 whole entry): as the sequence (Q96SW2 whole entry) above
T3 sequence (Q16531 whole entry partner): as the sequence (Q16531 whole entry partner) above

O=C1CCC(N2Cc3c(cccc3[C@H]3C[C@@]3(C(=O)OCC(Cl)(Cl)Cl)c3ccc(Br)cc3)C2=O)C(=O)N1 (some centres unmarked) [Compound 13b]
IC50 (CRBN): 2.4 µM | EC50 (IKZF3 (Aiolos)): > 10 µM | IKZF3 Ymin (IKZF3 (Aiolos)): 97 ± 4.9% | EC50 (CK1α): > 10 µM | CK1a Ymin (CK1α): 90 ± 7.1% | EC50 (GSPT1): > 10 µM | GSPT1 Ymin (GSPT1): 99 ± 2.2% | EC50 (SALL4): > 10 µM | SALL4 Ymin (SALL4): 97 ± 3.1%

O=C1CCC(N2C(=O)c3cccc([C@H]4C[C@@]4(C(=O)OCC(Cl)(Cl)Cl)c4ccc(Br)cc4)c3C2=O)C(=O)N1 (some centres unmarked) [Compound 14b]
IC50 (CRBN): 7.9 µM | EC50 (IKZF3 (Aiolos)): > 10 µM | EC50 (CK1α): > 10 µM | CK1a Ymin (CK1α): 94 ± 5.1% | EC50 (GSPT1): > 10 µM | GSPT1 Ymin (GSPT1): 87 ± 11% | EC50 (SALL4): > 10 µM | SALL4 Ymin (SALL4): 87 ± 13%

O=C1CCC(N2Cc3ccc(C4=C[C@]4(C(=O)OCC(Cl)(Cl)Cl)c4ccc(Br)cc4)cc3C2=O)C(=O)N1 (some centres unmarked) [Compound 23a]
IC50 (CRBN): 0.98 µM | EC50 (IKZF3 (Aiolos)): > 10 µM | IKZF3 Ymin (IKZF3 (Aiolos)): 94 ± 2.3% | EC50 (CK1α): > 10 µM | CK1a Ymin (CK1α): 93 ± 10% | EC50 (GSPT1): > 10 µM | GSPT1 Ymin (GSPT1): 82 ± 7.1% | EC50 (SALL4): > 10 µM | SALL4 Ymin (SALL4): 95 ± 6.5%

O=C1CCC(N2Cc3cc([C@H]4C[C@@]4(C(=O)OCC(Cl)(Cl)Cl)c4ccc(Br)cc4)ccc3C2=O)C(=O)N1 (some centres unmarked) [Compound 15b]
IC50 (CRBN): 1.3 µM | EC50 (IKZF3 (Aiolos)): > 10 µM | IKZF3 Ymin (IKZF3 (Aiolos)): 89 ± 5.0% | EC50 (CK1α): 0.22 ± 0.089 µM | EC50 (GSPT1): > 10 µM | GSPT1 Ymin (GSPT1): 83 ± 7.0% | EC50 (SALL4): 0.16 ± 0.05 µM | SALL4 Ymin (SALL4): 67 ± 5.4%

O=C1CCC(N2Cc3ccc([C@H]4C[C@@]4(C(=O)OCC(Cl)(Cl)Cl)c4ccc(Br)cc4)cc3C2=O)C(=O)N1 (some centres unmarked) [Compound 17b]
IC50 (CRBN): 2.5 µM | EC50 (IKZF3 (Aiolos)): > 10 µM | IKZF3 Ymin (IKZF3 (Aiolos)): 89 ± 6.5% | EC50 (CK1α): > 10 µM | CK1a Ymin (CK1α): 96 ± 12% | EC50 (GSPT1): > 10 µM | GSPT1 Ymin (GSPT1): 93 ± 5.8% | EC50 (SALL4): > 10 µM | SALL4 Ymin (SALL4): 96 ± 3.1%

O=C1CCC(N2C(=O)c3cccc(C4=C[C@@]4(C(=O)OCC(Cl)(Cl)Cl)c4ccc(Br)cc4)c3C2=O)C(=O)N1 (some centres unmarked) [Compound 20b]
EC50 (IKZF3 (Aiolos)): 3.7 µM and 3.67 µM | IKZF3 Ymin (IKZF3 (Aiolos)): 10 ± 8.2% and 10% | EC50 (CK1α): 2.1 ± 1.3 µM | CK1a Ymin (CK1α): 54 ± 8.9% | EC50 (GSPT1): 5.1 ± 1.4 µM | GSPT1 Ymin (GSPT1): 17 ± 13% | EC50 (SALL4): 2.8 ± 1.6 µM | SALL4 Ymin (SALL4): 57 ±7.7%

O=C1CCC(N2Cc3cc([C@@H]4C[C@]4(C(=O)OCC(Cl)(Cl)Cl)c4ccc(Br)cc4)ccc3C2=O)C(=O)N1 (some centres unmarked) [Compound 15a]
IC50 (CRBN): 0.39 µM | EC50 (IKZF3 (Aiolos)): > 10 µM | IKZF3 Ymin (IKZF3 (Aiolos)): 100 ± 4.6% | EC50 (CK1α): > 10 µM | EC50 (GSPT1): > 10 µM | GSPT1 Ymin (GSPT1): 96 ± 7.8% | EC50 (SALL4): > 10 µM | SALL4 Ymin (SALL4): 99 ± 1.2%

O=C1CCC(N2C(=O)c3cccc([C@@H]4C[C@]4(C(=O)OCC(Cl)(Cl)Cl)c4ccc(Br)cc4)c3C2=O)C(=O)N1 (some centres unmarked) [Compound 14a]
IC50 (CRBN): > 10 µM | EC50 (IKZF3 (Aiolos)): > 10 µM | IKZF3 Ymin (IKZF3 (Aiolos)): 89 ± 3.2% | EC50 (CK1α): > 10 µM | CK1a Ymin (CK1α): 92 ± 3.8% | EC50 (GSPT1): > 10 µM | GSPT1 Ymin (GSPT1): 91 ± 16% | EC50 (SALL4): > 10 µM | SALL4 Ymin (SALL4): 91 ± 8.0%

O=C1CCC(N2Cc3c(cccc3C3=C[C@@]3(C(=O)OCC(Cl)(Cl)Cl)c3ccc(Br)cc3)C2=O)C(=O)N1 (some centres unmarked) [Compound 19b]
IC50 (CRBN): 0.35 µM | EC50 (IKZF3 (Aiolos)): 0.11 ± 0.05 µM | IKZF3 Ymin (IKZF3 (Aiolos)): 69 ± 3.3% and 69% | EC50 (CK1α): 1.5 ± 1.1 µM | CK1a Ymin (CK1α): 60 ± 7.4% | EC50 (GSPT1): 0.55 ± 0.47 µM | GSPT1 Ymin (GSPT1): 66 ± 5.5% | EC50 (SALL4): 0.17 ± 0.06 µM | SALL4 Ymin (SALL4): 35 ± 5.9%

O=C1CCC(N2Cc3ccc([C@@H]4C[C@]4(C(=O)OCC(Cl)(Cl)Cl)c4ccc(Br)cc4)cc3C2=O)C(=O)N1 (some centres unmarked) [Compound 17a]
IC50 (CRBN): 2.1 µM | EC50 (IKZF3 (Aiolos)): > 10 µM | IKZF3 Ymin (IKZF3 (Aiolos)): 95 ± 7.6% | EC50 (CK1α): > 10 µM | CK1a Ymin (CK1α): 98 ± 12% | EC50 (GSPT1): > 10 µM | GSPT1 Ymin (GSPT1): 95 ± 5.4% | EC50 (SALL4): > 10 µM | SALL4 Ymin (SALL4): 97 ± 2.2%

O=C1CCC(N2Cc3c(cccc3[C@@H]3C[C@]3(C(=O)OCC(Cl)(Cl)Cl)c3ccc(Br)cc3)C2=O)C(=O)N1 (some centres unmarked) [Compound 13a]
IC50 (CRBN): 0.66 µM | EC50 (IKZF3 (Aiolos)): > 10 µM and 1.86 µM | EC50 (CK1α): > 10 µM | CK1a Ymin (CK1α): 87 ± 0.55% | EC50 (GSPT1): > 10 µM | GSPT1 Ymin (GSPT1): 92 ± 7.8% | EC50 (SALL4): > 10 µM | SALL4 Ymin (SALL4): 85 ± 7.3%

O=C1CCC(N2Cc3cccc(C4=C[C@@]4(C(=O)OCC(Cl)(Cl)Cl)c4ccc(Br)cc4)c3C2=O)C(=O)N1 (some centres unmarked) [Compound 24b]
IC50 (CRBN): 2.9 µM | EC50 (IKZF3 (Aiolos)): > 10 µM | IKZF3 Ymin (IKZF3 (Aiolos)): 93 ± 2.5% | EC50 (CK1α): > 10 µM | CK1a Ymin (CK1α): 93 ± 6.8% | EC50 (GSPT1): > 10 µM | GSPT1 Ymin (GSPT1): 80 ± 4.3% | EC50 (SALL4): > 10 µM | SALL4 Ymin (SALL4): 97 ± 5.2%

O=C1CCC(N2C(=O)c3ccc(C4=C[C@@]4(C(=O)OCC(Cl)(Cl)Cl)c4ccc(Br)cc4)cc3C2=O)C(=O)N1 (some centres unmarked) [Compound 22b]
IC50 (CRBN): 7.8 µM | EC50 (IKZF3 (Aiolos)): 0.31 ± 0.11 µM | IKZF3 Ymin (IKZF3 (Aiolos)): 71 ± 9.7% | EC50 (CK1α): 1.6 ± 0.71 µM | CK1a Ymin (CK1α): 55 ± 39% | EC50 (SALL4): 2.4 ± 1.7 µM | SALL4 Ymin (SALL4): 58 ± 3.2%
